# Source: patent US20110053849A1 (priority 2006, published 2011)
# Tests used:
# [1] = test system: LITAF; experiment: Western blot of LPS-induced LITAF gene expression in human monocytes; type: cell-based; settings: 0.1 μg/ml E. coli LPS 3 hours, then peptide 16 hours, FIG. 8B lane 5
# Method: Western blot analysis. […] Cells were then incubated overnight in RPMI 1640 medium with 10% FBS at 37° C., in a humidified atmosphere containing 5% CO2. The proteins from the treated cells were extracted with lysis buffer (Promega) plus a cocktail of […] (Sigma) following the manufacturer's instructions and suspended in SDS sample buffer, heated at 95° C. for 5 min, then applied to SDS-polyacrylamide gels and detected by Western blotting.
# (§1) To further examine the effects of pep12 on LPS-induced LITAF gene expression and LITAF-dependent TNF-α production, analyses of Western blot and ELISA were performed. Human monocytes (1×10^6) were stimulated with 0.1 μg/ml E. coli LPS for 3 hours and washed with PBS prior to treatment with peptides for 16 hours with either pep12 (#5) or pepSC as control (#4) using a Chariot kit (Active motif, Carlsbad, Calif.) or transfected with no DNA (#1) or with pGLP700 DNA (#2) as negative controls or with p53-1 DNA (#3) as a positive control. The cells were incubated in appropriate medium at 37° C., 5% CO2 overnight. The supernatants from cell cultures were measured by ELISA (Abraxis, Warminster, Pa.) and the extracts were detected by Western blot with antibodies against LITAF and actin (as a control).
# [2] = test system: human cytokines; experiment: Bioplex human monocyte cytokine assay; type: cell-based; settings: E. coli LPS + pep12 (10 µg or 100 υg)
# Method: This assay was performed to determine the effectiveness of the peptide of the present invention [pep12: SEQ ID NO.: 1] to inhibit various human cytokines. The assay performed was a human monocyte assay well known to those practiced in the art. The kit used here (trade name Bioplex) was supplied by Bio-Rad (Hercules, Calif.). Other commercially available assays are known and suitable for use in the assay described here.
# Bar (1) is the carrier solution alone (chariot alone); bar (2) is E. coli LPS stimulant; bar (3) is E. coli LPS+pepSC (scramble peptide); bar (4) is E. coli LPS+pep12 (10 υg); bar (5) is E. coli LPS+pep12 (100 υg). The cytokines tested include Human (Hu) IL-2, Hu Il-5, Hu Il-7, Hu Il-12 Hu Eotaxin, Hu Il-13, Hu-PDGF-β, Hu IL-1β, Hu-15, Hu IFN-γ, Hu IP-10, Hu IL-6, Hu RANTES, Hu TNF-α, Hu Il-1ra and Hu VEGF.
# [3] = test system: LITAF promoter; experiment: Luciferase reporter assay of LITAF promoter activity in p53-null H1299 cells; type: cell-based, human; settings: for Luciferase activity with peptide alone: peptide alone without pGLP700, FIG. 7 #5 and #6
# Method: Luciferase assay. […] Cells were then incubated overnight in appropriate media (DMEM or RPMI 1640)+10% FBS at 37° C., in a humidified atmosphere containing 5% CO2. The β-galactosidase gene was included in all transfections. Cells were harvested and the luciferase activity of each lysate was measured (Turner Designs luminometer model TD-20/20) using a commercial kit (luciferase reporter assay system, Promega) according to the protocol provided by the manufacturer. Finally, the data were normalized to β-galactosidase expression.
# The promoter activity of pGLP700 alone was assigned the maximal value of 100%. […] Deletions, indicated by ̂, correspond to aa 101-167 in construct A12, aa 167-234 in B1, aa 235-300 in C6 and aa 156-178 in D10. Construct p53LFB12 contained only 7 aa (KQSQHMT [SEQ ID NO: 1]) from the region (aa 164-170).
# The proteins extracted from each transfection of construct plus pGLP700 compared to the transfection of pGLP700 alone in p53-null H1299 cells were measured by luciferase assay. Triplicate assays were performed. […] Construct C6, containing aa 167 and its flanking sequences, reduced LITAF promoter activity to 22% of control even though it lacked aa 235-300.
# Furthermore, short peptides (pep12) that contain 7 residues (aa 164-170) (KQSQHMT [SEQ ID NO: 1]) corresponding to p53LFB12 and another peptide (pepSC) with reverse sequence of pep12 as a negative control, were synthesized and analyzed using the luciferase assay. Cultures of p53-null H1299 cells (5×10^6) were transfected with pGLP700 (#2-4, #7-12), pGLP550 (#13 and 14) or pGLP500 (#15 and 16) plus p53LFB12 (#4) or plus 12REV (#3) as control using Lipofactamine 2000 (Invitrogen) for 3 hours, washed with PBS and further transfected with peptide, 10 μg/ml (#10, 12, 14 and 16), then cells were incubated in appropriate medium at 37° C. overnight. Luciferase activities of the lysates from each culture of treated cells were measured. The extracts from untreated (#1), pepSC alone (#5), pep12 alone (#6), pGLP700 alone (#2 and 11, pGLP550 alone (#13) or pGLP500 alone (#15) were used as controls. Triplicate assays were performed.
# [4] = test system: TNF-α; experiment: ELISA of LPS-induced TNF-α production in human monocytes; type: cell-based; settings: 0.1 μg/ml E. coli LPS 3 hours, then peptide 16 hours, FIG. 8A
# Method: ELISA. Human monocytes (1×10^6) were stimulated with 0.1 μg/ml E. coli LPS for 3 hrs, washed with PBS, then further treated with peptides by Chariot kit (Active Motif, Carlsbad, Calif.). Cells were then incubated overnight in RPMI 1640 medium supplemented with 10% FBS at 37° C., in a humidified atmosphere containing 5% CO2. Culture supernatants were harvested and centrifuged at 1,500×g to remove cell debris, then concentrations of human TNF-α in the supernatant of each treated or untreated control cell condition were measured by ELISA (Abraxis, Warminster, Pa.). The ELISA immunoreactivity was quantified using a VerSaDoc Imaging System (BIO-RAD) and graphed.
# as §1, with “The cells were incubated in appropriate medium at 37° C., 5% CO2 overnight.” left out
# [5] = peptide 10 μg/ml plus pGLP700, FIG. 7 #7 and #10
Substance,LPS-induced LITAF gene expression [1],Concentration of active cytokine: Hu IL-13 [2],Concentration of active cytokine: Hu PDGF-β [2],Concentration of active cytokine: Hu RANTES [2],"Concentration of active cytokine: IL-2, IL-5, IL-7, IL-12, Eotaxin, IL-1β, IL-15, IFN-γ, IP-10, IL-6, TNF-α, IL-1ra, VEGF ([2]; FIGS. 9A-9C)","LITAF promoter activity ([3]; pep12 10 μg/ml plus pGLP500, FIG. 7 #16 vs #15)","LITAF promoter activity, % of control ([3]; pep12 10 μg/ml plus pGLP550, FIG. 7 #14 vs #13)","LITAF promoter activity, % of control ([3]; pep12 10 μg/ml plus pGLP700, FIG. 7 #12 vs #11)","LITAF promoter activity (untreated pGLP700 #2 = 100%) ([3]; peptide 0.1 μg/ml plus pGLP700, FIG. 7 #8)","LITAF promoter activity (untreated pGLP700 #2 = 100%) [3, 5]",Luciferase activity with peptide alone [3],"LITAF promoter activity (untreated pGLP700 #2 = 100%) ([3]; peptide plus pGLP700, FIG. 7 #9, concentration not clearly printed)","LPS-induced TNF-α production, % of control [4]"
KQSQHMT [pep12],inhibition of LPS-induced LITAF gene expression,only minor reductions,only minor reductions,only minor reductions,significant reduction,did not affect LITAF promoter activity,23%,15%,66%,15%,2.3%,40%,≤ 70%
"SKMQQTH [pepSC, reference compound]",,,,,,,,,,95%,1.5%,,could not affect LPS-induced TNF-α secretion
